Reference: patent publication US6627793B2, “Low temperature-inducible wheat WCS120 gene promoter” (Université du Québec A Montréal, priority 1998, dated 2003)

Assays:
[1] = system: PKC-like activity in CA nuclear extracts; test: PKC activity in nuclear extracts with the PKC-specific substrate peptide MARCKS; assay type: biochemical, wheat
Description: FIGS. 5. a) to c) Analysis of endogenous kinases in nuclear extracts from non-acclimated (NA) and cold-acclimated (CA) wheat plants. a) In vitro phosphorylation of nuclear proteins. Equal amounts of nuclear proteins (10 μg) were incubated with [γ-^32P]ATP and separated by SDS-PAGE. The gel was dried and exposed to a X-ray film. b) Immunodetection of a PKCg homolog in nuclear and soluble extracts from non-acclimated (NA) and cold-acclimated (CA) plants. Equal amounts of proteins (10 μg) were separated by SDS-PAGE, blotted onto nitrocellulose membranes and probed with the anti-PKCg antibody. CA2 and CA7 indicate soluble extracts from 2 and 7 days cold-acclimated plants. c) PKC activity was measured in the nuclear extracts with the peptide MARCKS as the PKC-specific substrate and containing the indicated chemicals. […] Aliquotes of each reaction were separated by SDS-PAGE and visualized by autoradiography. PS, phosphatydylserine; DAG, diacylglycerol.
To determine the qualitative changes in the phosphorylation pattern following cold treatment, the nuclear extracts from both NA and CA plants (10 μg protein) were incubated for 5 to 40 min at 30° C. in binding buffer (Harter, K., supra) containing 1 mM MgCl2, 50 μCi [γ-^32P]ATP and 1 mM CaCl2. At specified intervals, reactions were stopped by adding one volume of 2× SDS-sample buffer and the proteins were separated by SDS-PAGE. Gels were dried, exposed to X-ray film and the signal intensity of individual bands was determined by quantitative densitometry. To accurately quantify the Ca^2+-dependent and Ca^2+-independent nuclear kinase activities, the incorporation of ^32P on histone III-S, casein or the PKC-specific substrate peptide MARCKS (Biomol; Blackshear, P. J. (1993) J. Biol. Chem. 268: 1501-1504) was determined as described elsewhere (Kitano, T., et al. (1986) Methods Enzymol. 124: 349-352). Histone III-S and casein are suitable substrates for phosphorylation assays, particularly when dealing with a crude mixture of uncharacterized protein kinases. […]

[2] = system: WCS120 family of proteins; test: In vivo okadaic acid treatment of wheat shoots at low temperature, western blot densitometry of WCS120 proteins; parameters: species or system wheat (Triticum aestivum L. cv Fredrick); conditions: 4° C.
Description: FIGS. 6. a) to c) Effect of in vivo okadaic acid treatment on the accumulation of the cold-inducible WCS120 family of proteins. Wheat seedlings were incubated at low temperature without or with different concentrations of okadaic acid (OA), and soluble proteins were extracted and separated by SDS-PAGE. a) Immunodetection of the WCS120 protein family in the soluble extracts. Following the treatment, the proteins were analyzed by western blot using the anti-WCS120 antibody. b) SDS-PAGE gel stained with Coomassie blue showing equal protein loading. c) Densitometric quantification of the individual protein bands of 50, 66 and 200 kDa of the immunoblot shown in a. The 50 kDa protein is encoded by Wcs120 gene. Values represent averages and standard deviations of the integrated intensity of the pixels for each protein band, excluding the background, from at least three independent experiments.
Wheat shoots were cut and immediately incubated in water or in the presence of the phosphatase inhibitor okadaic acid (OA) at 10, 100 or 1000 nM. The plants were left at room temperature for 4 hours to allow translocation of the inhibitor, then transferred to 4° C. for 24 hours, and the total soluble proteins were extracted as described (Limin, A. E., supra). […] The signal intensity for individual protein bands on the X-ray films was quantified with a Personal Densitometer SI (Molecular Dynamics) using the ImageQuaNT version 4.2 software. […]
To determine the role of protein phosphatases on the expression of Wcs120 gene, wheat seedlings were incubated at 4° C. in the presence of okadaic acid (a potent and specific inhibitor of protein phosphatases PP1 and PP2A) (Smith, R. D., et al. (1996) Annu. Rev. Plant. Physiol. Plant. Mol. Biol. 47:101-125). Soluble proteins were extracted and the accumulation of the WCS120 family of proteins was analyzed by quantitative densitometry of western blots. […]

[3] = 1 μM okadaic acid, densitometric analysis

O=C(O)CN(CCOCCOCCN(CC(=O)O)CC(=O)O)CC(=O)O [EGTA]
inhibition of the phosphorylation of MARCKS ([1]; 0.5 mM EGTA): only partial inhibition

C=C1[C@@H](O)[C@@H]2O[C@]3(CC[C@H](/C=C/[C@@H](C)[C@@H]4CC(C)=C[C@@]5(O[C@H](C[C@@](C)(O)C(=O)O)CC[C@H]5O)O4)O3)CC[C@H]2O[C@@H]1[C@@H](O)C[C@H](C)[C@H]1O[C@@]2(CCCCO2)CC[C@H]1C [okadaic acid]
increase of the 50 and 66 kDa proteins with respect to plants exposed to low temperature without inhibitor [2, 3]: 2.2 fold
increase of the 200 kDa protein with respect to plants exposed to low temperature without inhibitor [2, 3]: 9 fold
accumulation of the 50, 66 and 200 kDa WCS120 proteins at low temperature ([2]; several concentrations of OA (10, 100 or 1000 nM)): significantly stimulated

Calphostin C
inhibition of MARCKS phosphorylation (32P incorporation, scintillation counting) ([1]; 0.5 mM Calphostin C): complete inhibition
inhibition of MARCKS phosphorylation ([1]; Calphostin C at 0.1 µM): did not significantly inhibit
